This note sets out measurements from patent publication US20200352914A1, “METHODS OF TREATING HYPERTENSION WITH ACTIVATORS OF TIE-2” (Aerpio Pharmaceuticals, Inc., priority 2019, published 2020).

The subject of assay [1] is endothelium-intact aortic rings. Nature of the assay: Vascular reactivity of aortic rings from C57/BL6 mice (myograph, TABLE 28). Also noted: species or system mouse. The procedure:
(§1) Aortic rings from eight to ten-week old male C57/BL6 mice were used to investigate the effects of Compound 2 on endothelial function. Twelve to fourteen-week old male Ins2^Akita mice and non-diabetic littermate controls were used to study the effects of Compound 2 on diabetes-associated endothelial dysfunction. Myograph experiments were performed in modified Krebs-Henseleit solution. Aortae were dissected free of adhering tissue, cut into 2-mm segments, and mounted in 5-mL myograph chambers under a basal tension of 1 g. Relaxation to cumulatively increasing concentrations (0.001-100 μmol/L) of Compound 2 or solvent (DMSO) was assessed in endothelium-intact aortic segments pre-contracted with phenylephrine (1 μmol/L) in the absence or presence of N^ω-nitro-L-arginine methyl ester (L-NAME; 300 μmol/L).
To assess the role for VE-PTP in the regulation of vascular reactivity, endothelium-intact rings of murine aortae were incubated with increasing concentrations of Compound 2.
FIG. 24 panels A-D illustrate the effect of Compound 2 on endothelial function. FIG. 24 panel A illustrates concentration dependent effect of Compound 2 on the tone of endothelium-intact aortic rings. Experiments were performed in the absence and presence of an eNOS inhibitor, L-NAME (300 μmol/L). FIG. 24 panels B-D illustrate the effect of solvent (Sol, DMSO) and Compound 2 (1, 3, or 10 μmol/L) on the contractile response to phenylephrine (PE; FIG. 24 panel B), and relaxation induced by either sodium nitroprusside (SNP; FIG. 24 panel C) or acetylcholine (ACh; FIG. 24 panel D). The dotted line in FIG. 24 panel D represents responses in endothelium-denuded aortic rings; n=5 mice/group.

The subject of assay [2] is endothelium-intact aortic rings from WT and Akita mice. Nature of the assay: Vascular reactivity of aortic rings from diabetic Ins2Akita mice and WT littermates (TABLE 29). Also noted: species or system mouse. To be noted: 10 μmol/L. The procedure:
as §1
To determine whether VE-PTP inhibition affects endothelial dysfunction that accompanies diabetes, aortic rings were isolated from 12-week old diabetic Ins2^Akita(Akita) mice and their non-diabetic littermates.
FIG. 29 panels A-B illustrate the effects of Compound 2 on diabetes-induced endothelial dysfunction. FIG. 29 panel A illustrates the effects of Compound 2 on acetylcholine-induced relaxation of endothelium-intact aortic rings from WT and Akita mice.

Assay [3] addresses recombinant human VE-PTP (Homo sapiens, UniProt P23467). Kind of assay: Human VE-PTP (HPTPβ) phosphatase assay on eNOS Tyr81. It is filed as biochemical. Conditions: pre-incubation with 10 μmol/L; cell-free. The procedure: Confluent monolayers of human endothelial cells expressing FLAG-tagged eNOS were cultured overnight in MCDB131 containing 0.1% BSA and then stimulated with Yoda1 (1 μmol/L) for 30 minutes to elicit phosphorylation of eNOS on Tyr81. eNOS-FLAG immunoprecipitates were used as substrates to test the ability of recombinant human VE-PTP to dephosphorylate eNOS Tyr81 in a cell-free in vitro reaction. Briefly after washing the FLAG-eNOS, immunoprecipitates were suspended in phosphatase assay buffer containing Tris/HCl pH 7.5 (50 mmol/L), NaCl (150 mmol/L), EDTA (1 mmol/L), and EDTA-free protease inhibitors mix at room temperature. An aliquot of the eNOS-FLAG immunoprecipitate was immediately processed for immunoblotting (input) and the remainder was divided into 6 identical aliquots and incubated for up to 10 minutes at room temperature in phosphatase assay buffer containing DTT (3 mmol/L) and recombinant human VE-PTP (100 U/50 μl reaction). Experiments were performed in the presence of solvent (1% DMSO) or Compound 2 (10 μmol/L) and reactions were stopped by boiling samples for 10 minutes in SDS sample buffer. eNOS phosphorylation was then analyzed by SDS-PAGE and immunoblotting.

Assay [4] relates to Sprague-Dawley rats. Kind of assay: MCT lung injury rat model of pulmonary hypertension (TABLE 30). It is filed as in vivo. To be noted: subset (n=3) of the monocrotaline group; s.c. injection at day 21. As to the method:
The MCT lung injury rat model was used to assess the effects of a Tie-2 activator disclosed herein, Compound 2, as a vasodilator of the pulmonary vasculature. At day 0, rats were treated with a single dose of 60 mg/kg monocrotaline (N=5) and compared to control rats (N=5), which were treated with vehicle. Animals from both groups underwent normal rodent care until day 21. At day 21, rats underwent simultaneous cannulation of the carotid and pulmonary artery/right ventricle. Arterial pressure was measured before and after subcutaneous injection of vehicle. Following the washout period of time, rats underwent the same measurements before and after subcutaneous injection of Compound 2. Hemodynamic endpoints included systemic pressure (via carotid catheterization) and pulmonary vascular pressure (right ventricular systolic pressure) vs. true pulmonary arterial pressure.
FIG. 31 panel A illustrates the effects of Compound 2 on mean arterial blood pressure (ABP), heart rate, and right ventricular pressure. Each time point represents a beat-to-beat analysis for each variable over a 2-min period, which were then averaged. […] All animals received Compound 2 at time=0 min.
After obtaining hemodynamic data, the rats were euthanized to assess the extent of RV hypertrophy, a marker of PH. […] RV hypertrophy was calculated based on the Fulton index using the following weight ratio: (RV/(LV+S)).

Where [5] appears, read: arteries precontracted with phenylephrine, n=5 mice/group.

recombinant human VE-PTP, sequence (P23467 23-1997): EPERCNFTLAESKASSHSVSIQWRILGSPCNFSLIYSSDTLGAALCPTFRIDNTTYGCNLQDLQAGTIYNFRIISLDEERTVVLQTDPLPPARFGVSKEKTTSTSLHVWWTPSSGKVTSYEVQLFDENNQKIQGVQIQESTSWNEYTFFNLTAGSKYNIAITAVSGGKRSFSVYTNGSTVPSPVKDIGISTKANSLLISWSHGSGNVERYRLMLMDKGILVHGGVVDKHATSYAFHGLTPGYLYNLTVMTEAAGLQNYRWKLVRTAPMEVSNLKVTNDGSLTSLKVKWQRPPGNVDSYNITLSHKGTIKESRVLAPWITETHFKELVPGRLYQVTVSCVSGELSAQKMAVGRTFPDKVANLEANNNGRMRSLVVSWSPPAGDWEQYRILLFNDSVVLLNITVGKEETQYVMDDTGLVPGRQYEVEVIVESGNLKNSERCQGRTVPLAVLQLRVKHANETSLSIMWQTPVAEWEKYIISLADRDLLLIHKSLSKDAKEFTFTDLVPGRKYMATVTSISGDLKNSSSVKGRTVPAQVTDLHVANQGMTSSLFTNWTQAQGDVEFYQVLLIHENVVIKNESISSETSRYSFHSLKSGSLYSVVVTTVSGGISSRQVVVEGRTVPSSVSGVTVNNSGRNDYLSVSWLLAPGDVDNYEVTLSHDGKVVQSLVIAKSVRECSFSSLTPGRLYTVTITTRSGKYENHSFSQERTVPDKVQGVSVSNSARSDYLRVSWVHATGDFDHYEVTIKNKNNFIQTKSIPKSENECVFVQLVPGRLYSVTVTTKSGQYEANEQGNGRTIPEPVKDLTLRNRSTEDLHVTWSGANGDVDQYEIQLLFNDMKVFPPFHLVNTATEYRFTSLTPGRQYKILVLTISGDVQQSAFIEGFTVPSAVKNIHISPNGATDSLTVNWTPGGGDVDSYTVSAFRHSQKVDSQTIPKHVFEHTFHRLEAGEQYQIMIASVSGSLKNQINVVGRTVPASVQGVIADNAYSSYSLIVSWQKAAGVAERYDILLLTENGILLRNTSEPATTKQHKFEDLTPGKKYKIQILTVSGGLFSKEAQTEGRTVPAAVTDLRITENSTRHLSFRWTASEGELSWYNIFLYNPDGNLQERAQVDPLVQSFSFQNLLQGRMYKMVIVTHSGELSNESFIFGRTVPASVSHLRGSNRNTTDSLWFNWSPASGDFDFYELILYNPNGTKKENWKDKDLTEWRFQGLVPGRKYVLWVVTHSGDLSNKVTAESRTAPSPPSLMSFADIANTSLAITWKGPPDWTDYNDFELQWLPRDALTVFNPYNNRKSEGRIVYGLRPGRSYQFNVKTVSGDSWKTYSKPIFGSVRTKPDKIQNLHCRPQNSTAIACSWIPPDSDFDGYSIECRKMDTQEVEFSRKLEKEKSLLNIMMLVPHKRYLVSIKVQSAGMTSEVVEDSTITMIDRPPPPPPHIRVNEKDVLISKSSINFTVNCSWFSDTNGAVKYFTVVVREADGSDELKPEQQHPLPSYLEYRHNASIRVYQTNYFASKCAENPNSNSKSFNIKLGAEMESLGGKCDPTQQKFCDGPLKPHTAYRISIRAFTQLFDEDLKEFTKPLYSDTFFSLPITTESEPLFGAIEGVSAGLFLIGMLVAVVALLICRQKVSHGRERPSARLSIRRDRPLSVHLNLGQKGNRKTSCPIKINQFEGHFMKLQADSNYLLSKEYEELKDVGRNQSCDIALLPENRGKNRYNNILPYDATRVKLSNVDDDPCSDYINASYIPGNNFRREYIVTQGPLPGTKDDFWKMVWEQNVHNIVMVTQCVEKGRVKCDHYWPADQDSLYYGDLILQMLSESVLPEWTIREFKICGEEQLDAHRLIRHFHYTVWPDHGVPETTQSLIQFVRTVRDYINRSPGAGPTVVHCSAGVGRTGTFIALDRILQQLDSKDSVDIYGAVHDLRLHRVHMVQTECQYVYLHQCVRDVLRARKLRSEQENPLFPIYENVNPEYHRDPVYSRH

For `CCc1nc([C@H](Cc2ccc(NS(=O)(=O)O)cc2)NC(=O)[C@H](Cc2ccccc2)NC(=O)OC)cs1` [Compound 2], the “phenylephrine-induced contractions and sodium nitroprusside-induced relaxations” value in assay [1] (1, 3, or 10 μmol/L, 30 minutes) was “Neither phenylephrine-induced contractions nor sodium nitroprusside-induced relaxations were affected”. Besides, the “acetylcholine-induced relaxations of endothelium-intact vessels” value in assay [1] (1, 3, or 10 μmol/L, concentration-dependent) was “significantly enhanced”. Further, the “relaxation response in presence of eNOS inhibitor L-NAME” value in assay [1] (L-NAME 300 μmol/L) is on record as “abolished”. In addition, in assay [1] (setting [5]), the “Emax of concentration-dependent relaxation” value turned out to be 73.4±2.9% and the “pEC50 of concentration-dependent relaxation” value stood at 5.14±0.05 log mol/L. Moreover, in assay [2] (Ins2Akita mice), the “acetylcholine-induced and NO-mediated relaxation in aortic rings from diabetic mice” value was “restored”; the “elevated phenylephrine-induced contraction of aortic rings” value is recorded as “not influenced”. Besides, in assay [2] (tissues from non-diabetic mice), the acetylcholine-induced endothelium-dependent relaxation entry is given as “potentiated responses”. Further, the “time-dependent dephosphorylation of eNOS Tyr81 by recombinant VE-PTP” value in assay [3] is “abolished”. Besides, the right ventricular pressure entry in assay [4] is on record as “significant drop in right ventricular pressure”.
